One assay concerns rat cornea. The experiment in a line: Rat corneal angiogenesis assay. The format is in vivo, Sprague Dawley rats. On the procedure: (§1) The rat corneal assay was performed as described elsewhere. See eg., Kenyon B M., et al A model of angiogenesis in the mouse cornea. Invest Opthalmol Vis Sci. 1996; 37:1625-1632. Uniformly sized pellets of Hydron (polyhydroxyethylmethacrylate [poly HEMA]) (Sigma-Aldrich) containing either TMD23 or basic fibroblast growth factor (bFGF) and sucralfate (Sigma-Aldrich) were implanted into the rat corneal stroma adjacent to the temporal limbus. Briefly, sterile-saline suspensions containing 5-40 μg TMD23 or bFGF plus 10 mg sucralfate were made and speed vacuumed for 5 min; 12% Hydron in ethanol was added as described. The suspension was deposited onto an autoclaved, sterilized, 15-mm×15-mm nylon mesh. […] The eyes of Sprague Dawley rats (250-300 g) were topically anesthetized and a single pellet was inserted into a surgically created pocket in the corneal stroma. Corneas were examined daily with a dissecting microscope for up to 24 days for capillary growth. Maximal vessel length, clock h, and vascular areas of corneas of all rats were measured with a slit-lamp stereomicroscope.
as §1, with “elsewhere.” for “elsewhere. See eg., Kenyon B M., et al A model of angiogenesis in the mouse cornea. Invest Opthalmol Vis Sci. 1996; 37:1625-1632.”, “clock hour,” for “clock h,”

Assay [1] deals with Matrigel plugs in FVB mice. Nature of the assay: Murine angiogenesis assay (Matrigel plug). The assay is classed as in vivo. On the procedure: To assess angiogenic effects in vivo, growth-factor-reduced liquid Matrigel (0.5 mL) containing heparin (60 U/mL) and various concentrations of TMD23, bFGF or VEGF was subcutaneously injected into FVB mice near the abdominal midline. Matrigel with PBS plus heparin served as the negative control, with bFGF and VEGF plus heparin as the positive control. Four days after injection, mice were sacrificed and Matrigel plugs were surgically removed. For macroscopic analysis of angiogenesis, hemoglobin content in Matrigel was measured using Drabkin reagent 525 (Sigma-Aldrich). For histological analysis, rat anti-mouse CD31 (PECAM-1, platelet endothelial cell adhesion molecule-1) antibody (Pharmingen) was used. The same specimens were used for hematoxylin and eosin (H&E) staining.

Assay [2] has as its system Matrigel plugs in FVB mice. Nature of the assay: Murine angiogenesis assay (Matrigel plug). The assay is classed as in vivo. The source holds these as a separate data set.
Assay [3] has as its system MMP-1, MMP-2, MMP-3, and MMP-9 in HUVEC conditioned medium. Nature of the assay: Gelatin and casein zymographies. The assay is classed as cell-based, human. The settings on record: gelatin zymography. Here is the method:
(§2) HUVECs were seeded at 80% confluence on 100-mm dishes in M199 medium. After 24 h, cells were rinsed with serum-free M199 twice and incubated in serum-free M199 with various concentrations of TMD23, VEGF (10 ng/mL), or PMA (70 ng/mL) for 12 h. The conditioned medium containing […] secreted proteins was analyzed by gelatin- and casein-based zymographies. The digested area appeared clear on a blue background, indicating the location of matrix metalloproteinase (MMP) activity. To further verify MMP caseinolytic activity, the casein-containing gel was incubated with incubation buffer containing 10 mM EDTA, an inhibitor of MMPs, to observe disappearance of the clear band. Plasminogen activator inhibitor (PAI) activity was measured by titrating samples with increasing amounts of tissue-type plasminogen activator (t-PA) (Boehringer Ingelheim) into a fixed volume of endothelial-cell-conditioned media.
as §2, with “zymographies. Lee O H, et al., Identification of angiogenic properties of insulin-like growth factor II in in vitro angiogenesis models. Brit J. Cancer. 2000; 82:385-391.” for “zymographies.”, “media. Shi G Y., et al., Plasmin and the regulation of tissue-type plasminogen activator biosynthesis in human endothelial cells. […]” for “media.”

Assay [4] concerns human umbilical vein endothelial cells (HUVECs). Nature of the assay: Cell proliferation assay (BrdU incorporation). The format is cell-based. Here is the method:
To evaluate the effect of TMD proteins on DNA synthesis in human umbilical vein endothelial cells (HUVECs), we performed a 5-bromo-2′-deoxyuridine (BrdU) incorporation assay with a commercial quantification kit (Roche Diagnostic GmbH) and manufacturer's protocol. Mitogenic effects induced by TMD proteins were also determined in the presence of polyclonal rabbit anti-TMD23 antibody (prepared by GlycoNex, Inc., Taiwan) that was purified by protein G-Sepharose column (Amersham Pharmacia Biotech AB).
To evaluate the effect of TMD proteins on DNA synthesis in human umbilical vein endothelial cells (HUVECs), a 5-bromo-2′-deoxyuridine (BrdU) incorporation assay were performed with a commercial quantification kit (Roche Diagnostic GmbH) and manufacturer's protocol. Mitogenic effects induced by TMD proteins were also determined in the presence of polyclonal rabbit anti-TMD23 antibody (prepared by GlycoNex, Inc., Taiwan) that was purified by protein G-Sepharose column (Amersham Pharmacia Biotech AB).
(Uptake of a labelled nucleoside into DNA is a usual measure of proliferation.)

“Also recorded” adds a separate entry of the source.

Consider “TMD23: Recombinant human thrombomodulin fragment, amino acids Ala242-Ser515 of SEQ ID NO: 2: six EGF-like structures (D2) plus Ser/Thr-rich domain D3”, for which, in the assay with rat cornea (90-ng dose), the “Day of maximal response” value was 10 days. Also, the “Maximal response compared with bFGF” value in the assay on rat cornea (90-ng dose, day 10) is “slightly greater than the response to 90 ng bFGF”. Also, the Corneal neovascularization entry with rat cornea (implants in rat cornea) is “induced dose-dependent and time-dependent corneal neovascularization”. Also, the “Day of complete abrogation of angiogenic response” value in the assay on rat cornea (response regressed gradually after day 10) is ≤ 24 days. In addition, the “Induction of in vivo angiogenesis compared with TMD2” value in assay [1] (Matrigel plug assay) is on record as “more effective than TMD2”. Further, the “Histology of Matrigel plugs (H&E, anti-mouse CD31)” value in assay [1] (TMD23 and heparin) is on record as “Capillary-like structures were found”. In addition, the “Vascularization of Matrigel plugs” value in assay [1] (all TMD23 concentrations, plus heparin) is “Intense vascularization”. In assay [1] (day 4, plus heparin (30 U), TMD23 10, 100, or 1,000 ng, bFGF 250 ng, VEGF 50 ng), the “Appearance of Matrigel plugs, with heparin” value is “bright red”. For the same substance, the “Magnitude of angiogenic reaction with heparin versus without” value in assay [1] (gels supplemented with both angiogenic factor and heparin) is on record as “considerably greater”. Moreover, the “Hemoglobin content of recovered Matrigel plugs” value in assay [1] (plus heparin, compared with controls) is “significantly increased”. Besides, the “Appearance of Matrigel plugs, without heparin” value in assay [2] is given as “pale”. In addition, the “Expression of MMP-2 and MMP-9” value in assay [3] (12 h) is “no significant effect”. Further, the “Expression of MMP-1/3” value in assay [3] (MMP-3 confirmed by caseinolytic zymography) was “stimulated expression”. Also, the “Stimulation of HUVEC proliferation” value in assay [4] (4.5 nM (150 ng/mL)) is listed as “roughly two-fold”. Also, the “DNA synthesis in HUVECs” value in assay [4] (BrdU incorporation, FIG. 2A) was “stimulated DNA synthesis”. The “Mitogenic activity / stimulation of HUVEC proliferation compared with TMD2” value in assay [4] (FIG. 2A) is recorded as “higher mitogenic activity than TMD2; also recorded: more effective than TMD2”.

For the origin of these results see patent US8293231B2, “Methods and compositions for treating ischemia” (Blue Blood Biotech Corp., priority 2005, dated 2012).
